Measured values published in US12599582B2, “Pyrrole compounds” (ALIGOS THERAPEUTICS, INC., priority 2019, dated 2026).

Test system: HBV
Assay: HBV-DNA Antiviral Assay Using HepG2.2.15 Cells (extracellular HBV DNA by qPCR)
Type: cell-based, hepatitis B virus (HBV)
Conditions: Hepatitis B virus; HBV DNA inhibition, HepG2.2.15 cells, extracellular HBV DNA by qPCR; read-out: EC50
Method in brief: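 HepG2.2.15 cells were treated on day 1 with 8 concentrations (4-fold dilutions, duplicate; 0.5% DMSO), with compound-containing medium refreshed on day 4, at 37 °C. On day 7, supernatant HBV DNA was measured by qPCR against a plasmid standard curve, with inhibition normalised between DMSO and ETV controls. EC50/EC90 and CC50 (CellTiter-Glo ATP) came from variable-slope fits.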

| SMILES | EC50 |
| --- | --- |
| C#C[C@@](CO)(NC(=O)C(=O)c1c(C)c(C(=O)Nc2ccc(F)c(C(F)(F)F)c2)n(C)c1C)C(F)(F)F [Compound 75b, N-[4-fluoro-3-(trifluoromethyl)phenyl]-1,3,5-trimethyl-4-[2-oxo-2-[[(1S)-1-(hydroxymethyl)-1-(trifluoromethyl)prop-2-ynyl]amino]acetyl]pyrrole-2-carboxamide] | 10 to 100 nM |
| Cc1c(C(=O)C(=O)NC2(C#CCO)COC2)c(C)n(C)c1C(=O)Nc1ccc(F)c(C#N)c1 [Compound 76, N-(3-cyano-4-fluoro-phenyl)-4-[2-[[3-(3-hydroxyprop-1-ynyl)oxetan-3-yl]amino]-2-oxo-acetyl]-1,3,5-trimethyl-pyrrole-2-carboxamide] | 10 to 100 nM |
| C#C[C@@](C)(NC(=O)C(=O)c1c(C)c(C(=O)Nc2ccc(F)c(C#N)c2)n(C)c1C)C(F)(F)F [Compound 79a, N-(3-cyano-4-fluoro-phenyl)-1,3,5-trimethyl-4-[2-oxo-2-[[(1R)-1-methyl-1-(trifluoromethyl)prop-2-ynyl]amino]acetyl]pyrrole-2-carboxamide] | 1 to 10 nM |
| C#C[C@](C)(NC(=O)C(=O)c1c(C)c(C(=O)Nc2ccc(F)c(C#N)c2)n(C)c1C)C(F)(F)F [Compound 79b, N-(3-cyano-4-fluoro-phenyl)-1,3,5-trimethyl-4-[2-oxo-2-[[(1S)-1-methyl-1-(trifluoromethyl)prop-2-ynyl]amino]acetyl]pyrrole-2-carboxamide] | 1 to 10 nM |
| C=C[C@](CO)(NC(=O)C(=O)c1c(C)c(C(=O)Nc2ccc(F)c(C(F)(F)F)c2)n(C)c1C)C(F)(F)F [Compound 80a, N-[4-fluoro-3-(trifluoromethyl)phenyl]-1,3,5-trimethyl-4-[2-oxo-2-[[(1R)-1-(hydroxymethyl)-1-(trifluoromethyl)allyl]amino]acetyl]pyrrole-2-carboxamide] | 1 to 10 nM |
| C=C[C@@](CO)(NC(=O)C(=O)c1c(C)c(C(=O)Nc2ccc(F)c(C(F)(F)F)c2)n(C)c1C)C(F)(F)F [Compound 80b, N-[4-fluoro-3-(trifluoromethyl)phenyl]-1,3,5-trimethyl-4-[2-oxo-2-[[(1S)-1-(hydroxymethyl)-1-(trifluoromethyl)allyl]amino]acetyl]pyrrole-2-carboxamide] | 1 to 10 nM |
| C#CC1(NC(=O)C(=O)c2c(C)c(C(=O)Nc3ccc(F)c(C(F)F)c3)n(C)c2Cl)CC(F)(F)C1 [Compound 81, 5-chloro-N-[3-(difluoromethyl)-4-fluoro-phenyl]-4-[2-[(1-ethynyl-3,3-difluoro-cyclobutyl)amino]-2-oxo-acetyl]-1,3-dimethyl-pyrrole-2-carboxamide] | 1 to 10 nM |
| C#CC1(NC(=O)C(=O)c2c(C)c(C(=O)Nc3ccc(F)c(C(F)F)c3)n(C)c2C)CC(F)(F)C1 [Compound 82, N-[3-(difluoromethyl)-4-fluoro-phenyl]-4-[2-[(1-ethynyl-3,3-difluoro-cyclobutyl)amino]-2-oxo-acetyl]-1,3,5-trimethyl-pyrrole-2-carboxamide] | 1 to 10 nM |
| C#CC1(NC(=O)C(=O)c2c(C)c(C(=O)Nc3ccnc(Br)c3F)n(C)c2C)COC1 [Compound 83, N-(2-bromo-3-fluoro-4-pyridyl)-4-[2-[(3-ethynyloxetan-3-yl)amino]-2-oxo-acetyl]-1,3,5-trimethyl-pyrrole-2-carboxamide] | 1 to 10 nM |
| C#CC1(NC(=O)C(=O)c2c(C)c(C(=O)Nc3ccnc(Br)c3F)n(C)c2C)CC(F)(F)C1 [Compound 84, N-(2-bromo-3-fluoro-4-pyridyl)-4-[2-[(1-ethynyl-3,3-difluoro-cyclobutyl)amino]-2-oxo-acetyl]-1,3,5-trimethyl-pyrrole-2-carboxamide] | 1 to 10 nM |
| Cc1c(C(=O)C(=O)NC(C)(C)c2nccs2)c(C)n(C)c1C(=O)Nc1ccc(F)c(C#N)c1 [Compound 85, N-(3-cyano-4-fluoro-phenyl)-1,3,5-trimethyl-4-[2-[(1-methyl-1-thiazol-2-yl-ethyl)amino]-2-oxo-acetyl]pyrrole-2-carboxamide] | 1 to 10 nM |
| C#CC1(NC(=O)C(=O)c2c(C)c(C(=O)Nc3ccc(F)c(F)c3)n(C)c2C)COC1 [Compound 86, N-(3,4-difluorophenyl)-4-[2-[(3-ethynyloxetan-3-yl)amino]-2-oxo-acetyl]-1,3,5-trimethyl-pyrrole-2-carboxamide] | 1 to 10 nM |
| C#CC1(NC(=O)C(=O)c2c(C)c(C(=O)Nc3ccc(F)c(F)c3)n(C)c2C)CCCCC1 [Compound 87, N-(3,4-difluorophenyl)-4-[2-[(1-ethynylcyclohexyl)amino]-2-oxo-acetyl]-1,3,5-trimethyl-pyrrole-2-carboxamide] | 1 to 10 nM |
| C#CC(C)(CC)NC(=O)C(=O)c1c(C)c(C(=O)Nc2ccc(F)c(F)c2)n(C)c1C (centres unmarked) [Compound 88, N-(3,4-difluorophenyl)-4-[2-[(1-ethyl-1-methyl-prop-2-ynyl)amino]-2-oxo-acetyl]-1,3,5-trimethyl-pyrrole-2-carboxamide] | 1 to 10 nM |
| C#CC(CC)(CC)NC(=O)C(=O)c1c(C)c(C(=O)Nc2ccc(F)c(F)c2)n(C)c1C [Compound 89, 4-[2-(1,1-diethylprop-2-ynylamino)-2-oxo-acetyl]-N-(3,4-difluorophenyl)-1,3,5-trimethyl-pyrrole-2-carboxamide] | 1 to 10 nM |
| C#CC(C)(C)NC(=O)C(=O)c1c(C)c(C(=O)Nc2ccc(F)c(F)c2)n(C)c1C [Compound 90, N-(3,4-difluorophenyl)-4-[2-(1,1-dimethylprop-2-ynylamino)-2-oxo-acetyl]-1,3,5-trimethyl-pyrrole-2-carboxamide] | 1 to 10 nM |
| Cc1c(C(=O)C(=O)NC(C)(C)c2ccccn2)c(C)n(C)c1C(=O)Nc1ccc(F)c(C#N)c1 [Compound 91, N-(3-cyano-4-fluoro-phenyl)-1,3,5-trimethyl-4-[2-[[1-methyl-1-(2-pyridyl)ethyl]amino]-2-oxo-acetyl]pyrrole-2-carboxamide] | 1 to 10 nM |
| Cc1c(C(=O)C(=O)NC(C)(C)c2cccnc2)c(C)n(C)c1C(=O)Nc1ccc(F)c(C#N)c1 [Compound 92, N-(3-cyano-4-fluoro-phenyl)-1,3,5-trimethyl-4-[2-[[1-methyl-1-(3-pyridyl)ethyl]amino]-2-oxo-acetyl]pyrrole-2-carboxamide] | 1 to 10 nM |
| Cc1c(C(=O)C(=O)NC(C)(C)c2ccncc2)c(C)n(C)c1C(=O)Nc1ccc(F)c(C#N)c1 [Compound 93, N-(3-cyano-4-fluoro-phenyl)-1,3,5-trimethyl-4-[2-[[1-methyl-1-(4-pyridyl)ethyl]amino]-2-oxo-acetyl]pyrrole-2-carboxamide] | 1 to 10 nM |
| Cc1c(C(=O)C(=O)NC2(C#C[C@@H](C)O)COC2)c(C)n(C)c1C(=O)Nc1ccc(F)c(C#N)c1 [Compound 94a, N-(3-cyano-4-fluoro-phenyl)-1,3,5-trimethyl-4-[2-oxo-2-[[3-[(3R)-3-hydroxybut-1-ynyl]oxetan-3-yl]amino]acetyl]pyrrole-2-carboxamide] | 10 to 100 nM |
| Cc1c(C(=O)C(=O)NC2(C#C[C@H](C)O)COC2)c(C)n(C)c1C(=O)Nc1ccc(F)c(C#N)c1 [Compound 94b, N-(3-cyano-4-fluoro-phenyl)-1,3,5-trimethyl-4-[2-oxo-2-[[3-[(3S)-3-hydroxybut-1-ynyl]oxetan-3-yl]amino]acetyl]pyrrole-2-carboxamide] | 1 to 10 nM |
| C=C[C@@](C)(NC(=O)C(=O)c1c(C)c(C(=O)Nc2ccc(F)c(C#N)c2)n(C)c1C)C(F)(F)F [Compound 95a, N-(3-cyano-4-fluoro-phenyl)-1,3,5-trimethyl-4-[2-oxo-2-[[(1R)-1-methyl-1-(trifluoromethyl)allyl]amino]acetyl]pyrrole-2-carboxamide] | 1 to 10 nM |
| C=C[C@](C)(NC(=O)C(=O)c1c(C)c(C(=O)Nc2ccc(F)c(C#N)c2)n(C)c1C)C(F)(F)F [Compound 95b, N-(3-cyano-4-fluoro-phenyl)-1,3,5-trimethyl-4-[2-oxo-2-[[(1S)-1-methyl-1-(trifluoromethyl)allyl]amino]acetyl]pyrrole-2-carboxamide] | 1 to 10 nM |
| Cc1c(C(=O)C(=O)NC(C)(C)c2cn[nH]c2)c(C)n(C)c1C(=O)Nc1ccc(F)c(C#N)c1 [Compound 96, N-(3-cyano-4-fluoro-phenyl)-1,3,5-trimethyl-4-[2-[[1-methyl-1-(1H-pyrazol-4-yl)ethyl]amino]-2-oxo-acetyl]pyrrole-2-carboxamide] | 1 to 10 nM |
| Cc1c(C(=O)C(=O)NC(C)(C)c2cn[nH]c2)c(C)n(C)c1C(=O)Nc1ccc(F)c(C(F)(F)F)c1 [Compound 97, N-[4-fluoro-3-(trifluoromethyl)phenyl]-1,3,5-trimethyl-4-[2-[[1-methyl-1-(1H-pyrazol-4-yl)ethyl]amino]-2-oxo-acetyl]pyrrole-2-carboxamide] | < 1 nM |
| Cc1c(C(=O)C(=O)NC(C)(C)c2cnn(C)c2)c(C)n(C)c1C(=O)Nc1ccc(F)c(C(F)(F)F)c1 [Compound 98, N-[4-fluoro-3-(trifluoromethyl)phenyl]-1,3,5-trimethyl-4-[2-[[1-methyl-1-(1-methylpyrazol-4-yl)ethyl]amino]-2-oxo-acetyl]pyrrole-2-carboxamide] | < 1 nM |
| Cc1c(C(=O)C(=O)NC(C)(C)c2ccccn2)c(C)n(C)c1C(=O)Nc1ccc(F)c(C(F)(F)F)c1 [Compound 99, N-[4-fluoro-3-(trifluoromethyl)phenyl]-1,3,5-trimethyl-4-[2-[[1-methyl-1-(2-pyridyl)ethyl]amino]-2-oxo-acetyl]pyrrole-2-carboxamide] | 1 to 10 nM |
| Cc1c(C(=O)C(=O)NC(C)(C)c2cccnc2)c(C)n(C)c1C(=O)Nc1ccc(F)c(C(F)(F)F)c1 [Compound 100, N-[4-fluoro-3-(trifluoromethyl)phenyl]-1,3,5-trimethyl-4-[2-[[1-methyl-1-(3-pyridyl)ethyl]amino]-2-oxo-acetyl]pyrrole-2-carboxamide] | < 1 nM |
| Cc1c(C(=O)C(=O)NC(C)(C)c2ccncc2)c(C)n(C)c1C(=O)Nc1ccc(F)c(C(F)(F)F)c1 [Compound 101, N-[4-fluoro-3-(trifluoromethyl)phenyl]-1,3,5-trimethyl-4-[2-[[1-methyl-1-(4-pyridyl)ethyl]amino]-2-oxo-acetyl]pyrrole-2-carboxamide] | 1 to 10 nM |
